The test system of assay [1] is human breast cancer cell line MCF-7. The assay is described as follows: Cancer cell growth inhibition test (CellTiter-Glo). Particulars: MCF-7, 72 hours. The class given is cell-based. The protocol: The human breast cancer cell line MCF-7 was treated with trypsin and harvested. The number of cells was counted, and about 3000 cells/80 μl per well were inoculated into a 96 well plate (Corning) and then incubated in a 37° C. incubator for 24 hours. Thereafter, the example compounds were diluted in a culture solution at various concentrations, and each well was treated with 20 μl and stored in a cell culture incubator for 72 hours. In the case of the group administered in combination, the example compounds and cisplatin or doxorubicin were diluted in a culture solution at various concentrations, and each well was treated with 20 μl. After 72 hours, each well was treated with 30 μl of CellTiter-Glo solution (Promega), and the luminescence was read on a Victor3 multi label reader (PerkinElmer).
Relative viability (%)=(value of each test well/value of well treated with DMSO alone)×100
The results obtained for each concentration for each example compound were the average values obtained from three wells, and PRIZM software was used for analysis of the results.

For another assay, the target named is Chk1 kinase (Homo sapiens (Human), UniProt O14757). The assay is described as follows: Chk1 kinase inhibitory activity (LanthaScreen TR-FRET). The class given is biochemical. The note with it: graded. The method, then: (§1) The compounds of Examples 1 to 66 were diluted at various concentrations and transferred to a 384-well plate by 5 μl, and 10 μl of a mixed solution (2×) of Chk1 kinase (Thermo, P3040) or Chk2 kinase (Thermo, PV3367) and a substrate (Thermo, PV3508) was added to wells treated with the compounds. 5 μl of an ATP solution at a 4× concentration was added to the test well and reacted at room temperature for 1 hour. 20 μl of LanthaScreen Terbium-CREB p-Ser 133 antibody (Thermo, PV3542) was added to the reaction well and incubated at room temperature for 30 minutes. Conversion data was measured by an EnVision 2014 multi label reader (PerkinElmer). The activity for each concentration was determined by the ratio (FRET ratio=FR) of the value obtained by dividing the value at 520 nm by the value at 490 nm among the emission wavelength values for each wavelength (Em520/Em490). The results obtained for each concentration of the compounds were the average values obtained in two wells, and the IC50 values of the compounds were calculated using PRIZM software for analysis of the results. IC50 in Table 7 was graded as follows.
Chk1 kinase, sequence (O14757 whole entry): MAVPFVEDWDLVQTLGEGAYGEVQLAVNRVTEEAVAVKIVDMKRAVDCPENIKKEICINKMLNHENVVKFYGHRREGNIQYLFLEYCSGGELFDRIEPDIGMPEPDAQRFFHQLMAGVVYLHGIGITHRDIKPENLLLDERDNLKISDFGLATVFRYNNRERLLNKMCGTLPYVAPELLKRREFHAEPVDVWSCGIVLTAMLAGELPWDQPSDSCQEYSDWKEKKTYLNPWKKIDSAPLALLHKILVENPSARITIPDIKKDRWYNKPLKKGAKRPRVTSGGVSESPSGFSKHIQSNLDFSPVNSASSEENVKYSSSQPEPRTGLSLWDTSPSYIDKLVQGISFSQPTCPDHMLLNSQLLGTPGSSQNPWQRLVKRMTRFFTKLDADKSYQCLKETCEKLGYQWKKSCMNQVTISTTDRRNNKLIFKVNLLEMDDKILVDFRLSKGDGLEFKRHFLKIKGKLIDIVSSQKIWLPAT

The target in another assay is Chk2 kinase (Homo sapiens (Human), UniProt O96017). The assay is described as follows: Chk2 kinase inhibitory activity (LanthaScreen TR-FRET). The class given is biochemical. Particulars: graded. The method, then: as §1
Chk2 kinase, sequence (O96017 whole entry): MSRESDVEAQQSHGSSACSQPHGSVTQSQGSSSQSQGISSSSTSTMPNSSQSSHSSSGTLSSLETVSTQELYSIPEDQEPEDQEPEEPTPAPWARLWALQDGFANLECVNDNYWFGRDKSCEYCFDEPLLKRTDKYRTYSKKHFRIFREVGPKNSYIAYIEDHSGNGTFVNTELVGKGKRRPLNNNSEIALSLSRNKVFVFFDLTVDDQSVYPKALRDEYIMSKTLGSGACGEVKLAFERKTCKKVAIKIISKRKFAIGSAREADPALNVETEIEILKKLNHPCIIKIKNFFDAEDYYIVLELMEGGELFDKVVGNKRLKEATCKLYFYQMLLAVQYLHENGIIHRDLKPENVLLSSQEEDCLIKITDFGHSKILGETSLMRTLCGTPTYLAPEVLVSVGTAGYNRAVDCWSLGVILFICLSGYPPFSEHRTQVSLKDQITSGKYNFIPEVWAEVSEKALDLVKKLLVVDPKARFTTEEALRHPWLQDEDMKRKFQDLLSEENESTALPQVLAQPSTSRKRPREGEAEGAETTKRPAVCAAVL
Where [2] appears, read: Homo sapiens, MCF7, 72 h, graded, read-out: Celltiter glo analysis (IC50).
[3] abbreviates: graded, read-out: Celltiter glo analysis (IC50).

The structures appear in SMILES notation. Like-named read-outs stand apart in the source and are kept apart here.

With `Cn1cc(-c2ccc(F)c(-c3cnc(N)c(C(=O)NC4CCC5(CC5)NC4)n3)c2)cn1` (racemic) [Example 40, 3-amino-6-(2-fluoro-5-(1-methyl-1H-pyrazol-4-yl)phenyl)-N-(4-azaspiro[2.5]octan-6-yl) pyrazine-2-carboxamide], the IC50 in assay [1] (setting [2]) is over 100000 nM; against Chk1 kinase, 10 to 100 nM; against Chk2 kinase it was at most 10 nM.

Turning to `Cn1cc(-c2cccc(-c3cnc(N)c(C(=O)NC4CCC5(CC5)NC4)n3)c2)cn1` (racemic) [Example 41, 3-amino-6-(3-(1-methyl-1H-pyrazol-4-yl)phenyl)-N-(4-azaspiro[2.5]octan-6-yl)pyrazine-2-carboxamide], the IC50 in assay [1] (setting [2]) is over 100000 nM; against Chk1 kinase, 10 to 100 nM; against Chk2 kinase, at most 10 nM.

With `CC1(C)Cc2c(-c3cccc(-c4cnc(N)c(C(=O)N[C@H]5CCC6(CC6)NC5)n4)c3)cnn2C1` (stereo in doubt) [Example 65, 3-amino-6-(3-(5,5-dimethyl-5,6-dihydro-4H-pyrrolo[1,2-b]pyrazol-3-yl)phenyl)-N-(4-azaspiro[2.5]octan-6-yl)pyrazine-2-carboxamide], the IC50 in assay [1] (setting [3]) is over 100000 nM; against Chk1 kinase it was 10 to 100 nM; against Chk2 kinase it was 10 to 100 nM.

As for `CC1(C)Cc2c(-c3ccc(F)c(-c4cnc(N)c(C(=O)N[C@H]5CCC6(CC6)NC5)n4)c3)cnn2C1` (stereo in doubt) [Example 66, 3-amino-6-(5-(5,5-dimethyl-5,6-dihydro-4H-pyrrolo[1,2-b]pyrazol-3-yl)-2-fluorophenyl)-N-(4-azaspiro[2.5]octan-6-yl)pyrazine-2-carboxamide], the figures for the IC50 (in assay [1] (setting [3]); against Chk1 kinase; against Chk2 kinase) were at most 10000 nM, over 1000 nM and 10 to 100 nM, respectively.

As to `Nc1ncc(-c2cc(-c3cnn(CC(F)(F)F)c3)ncc2F)nc1C(=O)N[C@@H]1CNC[C@@H](F)C1` [Example 2, 3-amino-6-(5-fluoro-2-(1-(2,2,2-trifluoroethyl)-1H-pyrazol-4-yl)pyridin-4-yl)-N-((3S,5S)-5-fluoropiperidin-3-yl)pyrazine-2-carboxamide], the 50% inhibitory concentration (IC50) in assay [1] (setting [2]) fell in the range of 10000 to 100000 nM; on Chk1 kinase, 100 to 1000 nM; against Chk2 kinase it was 10 to 100 nM.

For the compound `Nc1ncc(-c2cc(-c3cnn(CC(F)(F)F)c3)ncc2F)nc1C(=O)N[C@@H]1CNCC(F)(F)C1` [Example 4, (S)-3-amino-N-(5,5-difluoropiperidin-3-yl)-6-(5-fluoro-2-(1-(2,2,2-trifluoroethyl)-1H-pyrazol-4-yl)pyridin-4-yl)pyrazine-2-carboxamide], the half-maximal inhibitory concentration (IC50) in assay [1] (Homo sapiens, MCF7, 72 h, alone, read-out: Administered alone (IC50)) is 48100 nM; in assay [1] (setting [2]), 10000 to 100000 nM; in assay [1] (combination with cisplatin, read-out: Administered in combination with cisplatin (IC50)) it was 3440 nM; in assay [1] (combination with doxorubicin, read-out: Administered in combination with doxorubicin (IC50)), 670 nM; against Chk1 kinase, over 1000 nM; against Chk2 kinase it was 10 to 100 nM.

For the compound `CC(C)(O)Cn1cc(-c2cc(-c3cnc(N)c(C(=O)N[C@@H]4CNC[C@@H](F)C4)n3)ccn2)cn1` [Example 34, 3-amino-N-((3S,5S)-5-fluoropiperidin-3-yl)-6-(2-(1-(2-hydroxy-2-methylpropyl)-1H-pyrazol-4-yl)pyridin-4-yl)pyrazine-2-carboxamide], the IC50 on Chk1 kinase fell in the range of 10 to 100 nM.

`CC1(C)Cc2c(-c3cc(-c4cnc(N)c(C(=O)N[C@H]5CCCNC5)n4)ccn3)cnn2C1` [Example 49, (S)-3-amino-6-(2-(5,5-dimethyl-5,6-dihydro-4H-pyrrolo[1,2-b]pyrazol-3-yl)pyridin-4-yl)-N-(piperidin-3-yl)pyrazine-2-carboxamide]: the IC50 in assay [1] (setting [2]) was 10000 to 100000 nM; against Chk2 kinase it was at most 10 nM.

`CC1(C)Cc2c(-c3cc(-c4cnc(N)c(C(=O)N[C@H]5CCC6(CC6)NC5)n4)ccn3)cnn2C1` [Example 50, (S)-3-amino-6-(2-(5,5-dimethyl-5,6-dihydro-4H-pyrrolo[1,2-b]pyrazol-3-yl)pyridin-4-yl)-N-(4-azaspiro[2.5]octan-6-yl)pyrazine-2-carboxamide]: the values for the half-maximal inhibitory concentration (IC50) (in assay [1] (setting [2]); on Chk2 kinase) were 10000 to 100000 nM and at most 10 nM, respectively.

With `CC1(C)Cc2c(-c3cccc(-c4cnc(N)c(C(=O)N[C@H]5CCC6(CC6)NC5)n4)c3)cnn2C1` [Example 51, (S)-3-amino-6-(3-(5,5-dimethyl-5,6-dihydro-4H-pyrrolo[1,2-b]pyrazol-3-yl)phenyl)-N-(4-azaspiro[2.5]octan-6-yl)pyrazine-2-carboxamide], the IC50 in assay [1] (setting [3]) was 10000 to 100000 nM; against Chk2 kinase, at most 10 nM.

For `CC1(C)Cc2c(-c3cccc(-c4cnc(N)c(C(=O)N[C@@H]5CNCC[C@H]5O)n4)c3)cnn2C1` [Example 52, 3-amino-6-(3-(5,5-dimethyl-5,6-dihydro-4H-pyrrolo[1,2-b]pyrazol-3-yl)phenyl)-N-((3R,4R)-4-hydroxypiperidine-3-yl)pyrazine-2-carboxamide], the IC50 in assay [1] (setting [2]) lay within 10000 to 100000 nM; at Chk2 kinase it was 10 to 100 nM.

Consider `CC1(C)Cc2c(-c3cc(-c4cnc(N)c(C(=O)N[C@@H]5CNCC[C@H]5O)n4)ccn3)cnn2C1` [Example 53, 3-amino-6-(2-(5,5-dimethyl-5,6-dihydro-4H-pyrrolo[1,2-b]pyrazol-3-yl)pyridin-4-yl)-N-((3R,4R)-4-hydroxypiperidin-3-yl)pyrazine-2-carboxamide], for which the half-inhibitory concentration (IC50) in assay [1] (setting [2]) is over 100000 nM; against Chk2 kinase, 10 to 100 nM.

As for `CC1(C)Cc2c(-c3cc(-c4cnc(N)c(C(=O)N[C@@H]5CNC[C@H]5O)n4)ccn3)cnn2C1` [Example 54, 3-amino-6-(2-(5,5-dimethyl-5,6-dihydro-4H-pyrrolo[1,2-b]pyrazol-3-yl)pyridin-4-yl)-N-((3R,4R)-4-hydroxypyrrolidin-3-yl)pyrazine-2-carboxamide], the half-maximal inhibitory concentration (IC50) in assay [1] (setting [2]) was over 100000 nM; against Chk2 kinase it was at most 10 nM.

Regarding `CC1(C)Cc2c(-c3ccc(O)c(-c4cnc(N)c(C(=O)N[C@@H]5CNC[C@@H](F)C5)n4)c3)cnn2C1` [Example 55, 3-amino-6-(5-(5,5-dimethyl-5,6-dihydro-4H-pyrrolo[1,2-b]pyrazol-3-yl)-2-hydroxyphenyl)-N-((3S,5S)-5-fluoropiperidin-3-yl)pyrazine-2-carboxamide], the IC50 in assay [1] (setting [2]) is 10000 to 100000 nM; against Chk2 kinase, at most 10 nM.

As for `CC1(C)Cc2c(-c3ccc(O)c(-c4cnc(N)c(C(=O)N[C@H]5CCC6(CC6)NC5)n4)c3)cnn2C1` [Example 56, (S)-3-amino-6-(5-(5,5-dimethyl-5,6-dihydro-4H-pyrrolo[1,2-b]pyrazol-3-yl)-2-hydroxyphenyl)-N-(4-azaspiro[2.5]octan-6-yl)pyrazine-2-carboxamide], the IC50 in assay [1] (setting [2]) is 10000 to 100000 nM; on Chk2 kinase it was at most 10 nM.

In the case of `CC1(C)Cc2c(-c3ccc(O)c(-c4cnc(N)c(C(=O)N[C@@H]5CNC[C@H]5O)n4)c3)cnn2C1` [Example 57, 3-amino-6-(5-(5,5-dimethyl-5,6-dihydro-4H-pyrrolo[1,2-b]pyrazol-3-yl)-2-hydroxyphenyl)-N-((3R,4R)-4-hydroxypyrrolidin-3-yl)pyrazine-2-carboxamide], the half-maximal inhibitory concentration (IC50) in assay [1] (setting [2]) was over 100000 nM; on Chk2 kinase, 10 to 100 nM.

Take `CC1(C)Cc2c(-c3cccc(-c4cnc(N)c(C(=O)N[C@@H]5CNCCC5(F)F)n4)c3)cnn2C1` [Example 58, 3-amino-N-(4,4-difluoropiperidin-3-y)-6-(3-(5,5-dimethyl-5,6-dihydro-4H-pyrrolo[1,2-b]pyrazol-3-yl)phenyl)pyrazine-2-carboxamide]: the 50% inhibitory concentration (IC50) in assay [1] (setting [2]) is 10000 to 100000 nM; against Chk2 kinase, at most 10 nM.

With `CC1(C)Cc2c(-c3cccc(-c4cnc(N)c(C(=O)N[C@@H]5CNC[C@H]5O)n4)c3)cnn2C1` [Example 60, 3-amino-6-(3-(5,5-dimethyl-5,6-dihydro-4H-pyrrolo[1,2-b]pyrazol-3-yl)phenyl)-N-((3R,4R)-4-hydroxypyrrolidin-3-yl)pyrazine-2-carboxamide], the concentration for half-maximal inhibition (IC50) in assay [1] (setting [2]) is over 100000 nM; against Chk2 kinase, at most 10 nM.

In the case of `CC1(C)Cc2c(-c3cccc(-c4cnc(N)c(C(=O)N[C@H]5CNC[C@@H]5F)n4)c3)cnn2C1` [Example 62, 3-amino-6-(3-(5,5-dimethyl-5,6-dihydro-4H-pyrrolo[1,2-b]pyrazol-3-yl)phenyl)-N-((3S,4S)-4-fluoropyrrolidin-3-yl) pyrazine-2-carboxamide], the 50% inhibitory concentration (IC50) is 10000 to 100000 nM in assay [1] (setting [2]) and 10 to 100 nM against Chk2 kinase.

Regarding `CC1(C)Cc2c(-c3nccc(-c4cnc(N)c(C(=O)N[C@H]5CCC6(CC6)NC5)n4)n3)cnn2C1` [Example 63, (S)-3-amino-6-(2-(5,5-dimethyl-5,6-dihydro-4H-pyrrolo[1,2-b]pyrazol-3-yl)pyrimidin-4-yl)-N-(4-azaspiro[2.5]octan-6-yl) pyrazine-2-carboxamide], the IC50 in assay [1] (setting [2]) was 10000 to 100000 nM; against Chk2 kinase it was at most 10 nM.

The values are drawn from patent publication US20250188059A1, “NOVEL COMPOUND AND USE THEREOF FOR INHIBITING CHECKPOINT KINASE 2” (ARUM THERAPEUTICS INC, priority 2022, published 2025).
